# Test results: the NIST ThermoML archive (doi:10.1021/acs.jced.6b00290)
# ± gives the expanded uncertainty stated by the source.
# Assay: refractive index (Na D-line) (dimensionless); wn = mass fraction of the nth substance listed
# Settings: 333.15 K, 100 kPa, Liquid, Standard Abbe refractometry
refractive index (w1 = 0.5241),refractive index (w1 = 0.3525),Structure (SMILES)
1.4594 ± 0.0004,,[Br-].[Br-].[Mg+2] [magnesium bromide (MgBr2)] + O
,1.3957 ± 0.0004,O=S(=O)([O-])[O-].[Mg+2] [magnesium sulfate] + O
